Consider 21 compounds from patent US20080027042A1, “Novel Aminopyridine Derivatives Having Aurora a Selective Inhibitory Action” (priority 2004, published 2008).

For one test, the target named is T1, Aurora A (Homo sapiens, UniProt O14965).
T1 construct: histidine tag (N); made in house; host or cells: Escherichia coli BL21-CodonPlus(DE3)-RIL
T1 sequence (O14965 1-403): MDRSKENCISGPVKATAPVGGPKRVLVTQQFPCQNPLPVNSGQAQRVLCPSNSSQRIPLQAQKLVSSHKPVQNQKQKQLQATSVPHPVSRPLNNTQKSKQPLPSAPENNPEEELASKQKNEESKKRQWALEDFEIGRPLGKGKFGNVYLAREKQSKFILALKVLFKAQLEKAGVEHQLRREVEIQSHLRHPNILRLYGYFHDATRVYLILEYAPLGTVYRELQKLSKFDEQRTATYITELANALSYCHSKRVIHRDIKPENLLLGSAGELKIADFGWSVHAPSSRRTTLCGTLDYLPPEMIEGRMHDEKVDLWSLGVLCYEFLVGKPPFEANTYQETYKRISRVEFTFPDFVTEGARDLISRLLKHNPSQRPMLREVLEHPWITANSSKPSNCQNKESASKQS
Put plainly: Aurora A inhibitory action (33P-ATP kinase assay, Kemptide substrate). In kind it is biochemical. The note with it: 20 μM ATP, 30° C., 20 minutes. An excerpt:
Aurora A Inhibitory Action
(1) Purification of Aurora A
cDNA of Aurora A having histidine tag fused at the amino terminal was integrated into an expression vector, which was then highly expressed in Escherichia coli BL2 1-CodonPlus(DE3)-RIL cells. The Escherichia coli cells were recovered and solubilized, and then the histidine-tagged Aurora A protein was adsorbed onto a nickel chelate column and eluted from the column with imidazole. The active fraction was desalted with a desalting column to give a pure enzyme.
(2) Measurement of Activity of Aurora A
For measurement of the activity of Aurora A, the substrate used was Kemptide (Lys-Arg-Arg-Ala-Ser-Lys-Gly) (SEQ.ID.NO.: 1), a synthetic peptide purchased from Sigma-Aldrich, Inc. [Certificate of analysis (Upstate, Inc.)].
Reaction was conducted by a partial modification of a method by Upstate, Inc. [Kinase Profiler™ Assay Protocols]. The amount of the reaction liquid was 21.1 μL, and the composition of the reaction buffer (R2 buffer) was 50 mM Tris-hydrochloride buffer (pH 7.4)/15 mM magnesium acetate/0.2 mM ethylenediamine-N,N,N′,N′-tetraacetate (EDTA). To this, purified Aurora A, 100 μM of a substrate peptide, 20 μM of unlabeled adenosine triphosphate (ATP) and 0.5 μCi of [γ-^33P] labeled ATP (2,500 Ci/mmole or more) were added, and the mixture was reacted at 30° C. for 20 minutes. Then, 10 μL of 350 mM phosphate buffer was added to the reaction system to stop the reaction. The substrate peptide was adsorbed on a P81 paper filter 96-well plate and then washed with 130 mM phosphate buffer for several times. The radiation activity of the peptide was measured with a liquid scintillation counter. The [γ-^33P] labeled ATP was purchased from Amersham Biosciences Co., Ltd.
(§1) The compound to be tested was added to the reaction system such that a dilution series of the compound in dimethylsulfoxide was first prepared, and 1.1 μL of this solution was added. A control was provided by adding 1.1 μL of DMSO to the reaction system.

Another test deals with T2, Aurora B (Homo sapiens, UniProt Q96GD4).
T2 construct: histidine tag (N); made in house; host or cells: Escherichia coli BL21-CodonPlus(DE3)-RIL
The test can be described thus: Aurora B inhibitory action (33P-ATP kinase assay, Kemptide substrate). The note with it: 100 μM ATP, 30° C., 20 minutes. It is filed as biochemical.
Source text: Aurora B Inhibitory Action
(1) Purification of Aurora B
cDNA of Aurora B having histidine tag fused at the amino terminal was integrated into an expression vector, which was then highly expressed in Escherichia coli BL21-CodonPlus(DE3)-RIL cells. The Escherichia coli cells were recovered and solubilized, and then the histidine-tagged […] protein was adsorbed onto a nickel chelate column and eluted from the column with imidazole. The active fraction was desalted with a desalting column to give a pure enzyme.
(2) Measurement of Activity of Aurora B
For measurement of the activity of Aurora B, the substrate used was Kemptide (Lys-Arg-Arg-Ala-Ser-Lys-Gly) (SEQ.ED.NO.: 1), a synthetic peptide purchased from Sigma-Aldrich, Inc. [Certificate of analysis (Upstate, Inc.)].
Reaction was conducted by a partial modification of the method of activity measurement for Aurora A. The amount of the reaction liquid was 21.1 μL, and the composition of the reaction buffer (R2 buffer) was 50 mM Tris-hydrochloride buffer (pH 7.4)/15 mM magnesium acetate/0.2 mM ethylenediamine-N,N,N′,N′-tetraacetate (EDTA). To this, purified Aurora B, 100 μM of a substrate peptide, 100 μM of unlabeled adenosine triphosphate (ATP) and 1 μCi of [γ-^33P] labeled ATP (2,500 Ci/mmole or more) were added, and the mixture was reacted at 30° C. for 20 minutes. Then, 10 μL of 350 mM phosphate buffer was added to the reaction system to stop the reaction. The substrate peptide was adsorbed on a P81 paper filter 96-well plate and then washed with 130 mM phosphate buffer for several times. The radiation activity of the peptide was measured with a liquid scintillation counter. The [γ-^33P] labeled ATP was purchased from Amersham Biosciences Co., Ltd.
as §1

Where a name gives a salt, the structure may show the parent alone.

T2 sequence (Q96GD4 whole entry): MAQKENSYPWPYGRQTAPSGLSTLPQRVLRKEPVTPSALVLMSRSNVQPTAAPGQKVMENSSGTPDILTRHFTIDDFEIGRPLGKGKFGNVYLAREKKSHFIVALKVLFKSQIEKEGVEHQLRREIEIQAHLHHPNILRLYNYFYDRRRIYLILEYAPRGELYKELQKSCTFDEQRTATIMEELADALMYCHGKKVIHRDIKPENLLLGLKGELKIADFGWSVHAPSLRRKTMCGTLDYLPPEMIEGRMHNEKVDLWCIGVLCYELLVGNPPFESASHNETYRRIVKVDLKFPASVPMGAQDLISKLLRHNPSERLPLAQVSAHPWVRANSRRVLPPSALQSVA

For “6-((4-(3-(dimethylamino)benzoyl)piperazin-1-yl)methyl)-N-(5-chlorothiazol-2-yl)pyridin-2-amine [Example 73]”, the IC50 on Aurora A was 0.017 µM; at Aurora B it was 0.41 µM.
Taken in the same sequence, the figures for `O=C(c1cccc(F)c1Cl)N1CCN(Cc2cccc(Nc3nccs3)n2)CC1` [Example 9, 6-((4-(2-chloro-3-fluorobenzoyl)piperazin-1-yl)methyl)-N-thiazol-2-ylpyridin-2-amine] were 0.0013 µM and 0.76 µM.
For `O=C(c1cccc(Cl)c1F)N1C[C@@H]2C[C@H]1CN2Cc1cccc(Nc2nccs2)n1` [Example 10, 6-(((1S,4S)-5-(3-chloro-2-fluorobenzoyl)-2,5-diazabicyclo[2.2.1]hept-2-yl)methyl)-N-thiazol-2-ylpyridin-2-amine trifluoroacetate], the IC50 on Aurora A was 0.00049 µM; against Aurora B, 0.092 µM.
Regarding `O=C(c1cccc(Cl)c1F)N1C[C@H]2C[C@@H]1CN2Cc1cccc(Nc2nccs2)n1` [Example 11, 6-(((1R,4R)-5-(3-chloro-2-fluorobenzoyl)-2,5-diazabicyclo[2.2.1]hept-2-yl)methyl)-N-thiazol-2-ylpyridin-2-amine], the values for the IC50 on Aurora A and at Aurora B were 0.0013 µM and 0.57 µM, respectively.
As for `O=C(c1cccc(Br)c1F)N1CCN(Cc2cccc(Nc3nccs3)n2)CC1` [Example 12, 6-((4-(3-bromo-2-fluorobenzoyl)piperazin-1-yl)methyl)-N-thiazol-2-ylpyridin-2-amine trifluioroacetate], the half-inhibitory concentration (IC50) was found to be 0.00052 µM against Aurora A and 0.4 µM on Aurora B.
With `O=C(c1cccc(C(F)(F)F)c1F)N1CCN(Cc2cccc(Nc3nccs3)n2)CC1` [Example 13, 6-((4-(2-fluoro-3-(trifluoromethyl)benzoyl)piperazin-1-yl)methyl)-N-thiazol-2-ylpyridin-2-amine trifluoroacetate], the IC50 at Aurora A came to 0.00089 µM; at Aurora B, 0.38 µM.
Turning to `O=C(c1cccc(C(F)F)c1F)N1CCN(Cc2cccc(Nc3nccs3)n2)CC1` [Example 15, 6-((4-(3-(difluoromethyl)-2-fluorobenzoyl)piperazin-1-yl)methyl)-N-thiazol-2-ylpyridin-2-amine], the IC50 against Aurora A worked out at 0.0014 µM; against Aurora B, 1 µM.
Turning to `O=C(c1cccc(Cl)c1F)N1CCN(Cc2cccc(Nc3cc[nH]n3)n2)CC1` [Example 16, 6-((4-(3-chloro-2-fluorobenzoyl)piperazin-1-yl)methyl)-N-1H-pyrazol-3-ylpyridin-2-amine], the figures for the IC50 against Aurora A and against Aurora B were 0.0018 µM and 1.3 µM, respectively.
Turning to `O=C(c1cccc(C(F)(F)F)c1Cl)N1CCN(Cc2cccc(Nc3cc[nH]n3)n2)CC1` [Example 18, 6-((4-(2-chloro-3-(trifluoromethyl)benzoyl)piperazin-1-yl)methyl)-N-1H-pyrazol-3-ylpyridin-2-amine trifluoroacetate], the 50% inhibitory concentration (IC50) on Aurora A stood at 0.0018 µM; at Aurora B it was 0.83 µM.
On to `O=C(c1cccc(Br)c1F)N1CCN(Cc2cccc(Nc3cc[nH]n3)n2)CC1` [Example 20, 6-((4-(3-bromo-2-fluorobenzoyl)piperazin-1-yl)methyl)-N-1H-pyrazol-3-ylpyridin-2-amine trifluoroacetate], for which the results for the IC50 against Aurora A and against Aurora B were 0.0011 µM and 1.8 µM, respectively.
Taken in the same sequence, the figures for `O=C(Cc1ccc(Cl)c(Cl)c1)N1CCN(Cc2cccc(Nc3cc[nH]n3)n2)CC1` [Example 21, 6-((4-((3,4-dichlorophenyl)acetyl)piperazin-1-yl)methyl)-N-1H-pyrazol-3-ylpyridin-2-amine trifluoroacetate] were 0.016 µM and 6.8 µM.
Regarding `O=C(c1cccc(Cl)c1F)N1C[C@@H]2C[C@H]1CN2Cc1cccc(Nc2cc[nH]n2)n1` [Example 23, 6-(((1 S,4S)-5-(3-chloro-2-fluorobenzoyl)-2,5-diazabicyclo[2.2.1]hept-2-yl)methyl)-N-1H-pyrazol-3-ylpyridin-2-amine], the results for the IC50 against Aurora A and at Aurora B were 0.0036 µM and 1.2 µM, respectively.
On to `CC(c1cccc(Nc2cc[nH]n2)n1)N1CCN(C(=O)c2cccc(Cl)c2F)CC1` (stereo not drawn) [Example 24, 6-(1-(4-(3-chloro-2-fluorobenzoyl)piperazin-1-yl)ethyl)-N-1H-pyrazol-3-ylpyridin-2-amine], for which the values for the IC50 against Aurora A and on Aurora B were 0.023 µM and 26 µM, respectively.
In the case of `Cc1cc(Nc2cccc(CN3CCN(C(=O)c4cccc(Cl)c4Cl)CC3)n2)n[nH]1` [Example 26, 6-((4-(2,3-dichlorobenzoyl)piperazin-1-yl)methyl)-N-(5-methyl-1H-pyrazol-3-yl)pyridin-2-amine trifluoroacetate], the concentration for half-maximal inhibition (IC50) at Aurora A came to 0.0011 µM; against Aurora B it was 0.45 µM.
As to `Cc1cc(Nc2cccc(CN3C[C@@H]4C[C@H]3CN4C(=O)c3cccc(Cl)c3F)n2)n[nH]1` [Example 27, 6-(((1S,4S)-5-(3-chloro-2-fluorobenzoyl)-2,5-diazabicyclo[2.2.1]hept-2-yl)methyl)-N-(5-methyl-1H-pyrazol-3-yl)pyridin-2-amine], the results for the IC50 on Aurora A and on Aurora B were 0.0033 µM and 1.7 µM, respectively.
On to `O=C(c1ccccc1)N1CCN(Cc2cccc(Nc3cc(C4CC4)[nH]n3)n2)CC1` [Example 31, 6-((4-benzoylpiperazin-1-yl)methyl)-N-(5-cyclopropyl-1H-pyrazol-3-yl)pyridin-2-amine], for which the concentration for half-maximal inhibition (IC50) on Aurora A amounted to 0.037 µM; at Aurora B, 0.76 µM.
As to `O=C(c1cccc(Cl)c1F)N1CCN(Cc2cccc(Nc3ncns3)n2)CC1` [Example 32, 6-((4-(3-chloro-2-fluorobenzoyl)piperazin-1-yl)methyl)-N-1,2,4-thiadiazol-5-ylpyridin-2-amine], the 50% inhibitory concentration (IC50) worked out at 0.0037 µM at Aurora A and 4.8 µM on Aurora B.
In the case of `C[C@@H]1CN(Cc2cccc(Nc3ncns3)n2)CCN1C(=O)c1ccccc1` [Example 33, 6-(((3R)-4-benzoyl-3-methylpiperazin-1-yl)methyl)-N-1,2,4-thiadiazol-5-ylpyridin-2-amine trifluoroacetate], the IC50 at Aurora A stood at 0.05 µM; against Aurora B, 3 µM.
In the case of `O=C(c1ccccc1)N1CCCN(Cc2cccc(Nc3ncns3)n2)CC1` [Example 35, 6-((4-benzoyl-1,4-diazepan-1-yl)methyl)-N-1,2,4-thiadiazol-5-ylpyridin-2-amine], the IC50 on Aurora A was determined as 0.031 µM; against Aurora B, 3.4 µM.
Consider `O=C(c1cccc(C(F)(F)F)c1)N1CCN(Cc2cccc(Nc3ncns3)n2)CC1` [Example 37, 6-((4-(3-(trifluoromethyl)benzoyl)piperazin-1-yl)methyl)-N-1,2,4-thiadiazol-5-ylpyridin-2-amine], for which the results for the IC50 against Aurora A and at Aurora B were 0.0049 µM and 8.8 µM, respectively.
On to `O=C(c1cccc(Br)c1)N1CCN(Cc2cccc(Nc3ncns3)n2)CC1` [Example 38, 6-((4-(3-bromobenzoyl)piperazin-1-yl)methyl)-N-1,2,4-thiadiazol-5-ylpyridin-2-amine], for which the IC50 turned out to be 0.0091 µM against Aurora A and 9.5 µM against Aurora B.
